Reference: US9809573B2, “Substituted pyridine derivatives useful as GSK-3 inhibitors” (priority 2013, dated 2017)
Where two headings read alike, the source gives them in different places.

What was measured:
GSK3β = GSK3β (Homo sapiens, UniProt P49841); experiment: GSK3β kinase assay (Caliper LabChip3000, fluoresceinated peptide substrate); type: biochemical
Procedure: (§1) The kinase assay was performed in V-bottom 384-well plates. […] The reaction was incubated at room temperature for 20 hours and terminated by adding 45 μl of 35 mM EDTA to each sample. The reaction mixture was analyzed on the Caliper LabChip3000 (Caliper, Hopkinton, Mass.) by electrophoretic separation of the unphosphorylated substrate and phosphorylated product. […] Compounds were dissolved at 10 mM in dimethylsulfoxide (DMSO) and evaluated at eleven concentrations. IC50 values were derived by non-linear regression analysis.

GSK3α = GSK3α (Homo sapiens, UniProt P49840); experiment: biochemical
Procedure: as §1

[1] = first value of the cell, 250 pM enzyme, 20 uM ATP, 20 hours at room temperature, read-out: GSK3β/α (nM): GSK3β IC50
[2] = second value of the cell, 250 pM enzyme, 20 uM ATP, 20 hours at room temperature, read-out: GSK3β/α (nM): GSK3α IC50

Chain of GSK3α (P49840 whole entry, species assumed): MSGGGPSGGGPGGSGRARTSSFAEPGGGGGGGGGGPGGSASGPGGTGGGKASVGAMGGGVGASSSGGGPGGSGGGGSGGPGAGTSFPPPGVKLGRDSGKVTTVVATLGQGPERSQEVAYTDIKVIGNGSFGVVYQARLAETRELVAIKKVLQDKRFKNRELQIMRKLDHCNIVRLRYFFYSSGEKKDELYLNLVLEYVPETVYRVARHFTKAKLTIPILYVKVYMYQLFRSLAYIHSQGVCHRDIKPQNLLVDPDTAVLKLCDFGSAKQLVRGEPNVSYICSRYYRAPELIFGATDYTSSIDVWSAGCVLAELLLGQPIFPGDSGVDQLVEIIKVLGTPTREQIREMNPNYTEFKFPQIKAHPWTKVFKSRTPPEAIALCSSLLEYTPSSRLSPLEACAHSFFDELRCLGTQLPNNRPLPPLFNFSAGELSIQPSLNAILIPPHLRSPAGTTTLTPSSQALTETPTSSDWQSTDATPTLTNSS
Chain of GSK3β (P49841 whole entry, species assumed): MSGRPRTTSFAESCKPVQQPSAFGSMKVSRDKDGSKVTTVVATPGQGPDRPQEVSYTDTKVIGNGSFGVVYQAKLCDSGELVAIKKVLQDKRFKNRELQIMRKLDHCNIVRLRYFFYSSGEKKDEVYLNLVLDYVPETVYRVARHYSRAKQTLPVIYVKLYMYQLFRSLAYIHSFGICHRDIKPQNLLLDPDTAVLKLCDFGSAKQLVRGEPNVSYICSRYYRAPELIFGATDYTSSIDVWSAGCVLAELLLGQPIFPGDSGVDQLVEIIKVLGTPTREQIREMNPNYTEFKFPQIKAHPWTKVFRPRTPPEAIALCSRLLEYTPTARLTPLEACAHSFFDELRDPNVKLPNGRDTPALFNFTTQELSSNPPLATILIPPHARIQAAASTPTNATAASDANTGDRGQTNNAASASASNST

| Compound | IC50 (GSK3β; [1]) | IC50 (GSK3α; [2]) | IC50 (GSK3α) | IC50 (GSK3β) |
| --- | --- | --- | --- | --- |
| 2-((1,3-Cis)-3-chlorocyclobutanecarboxamido)-N-(4-phenylpyridin-3-yl)isonicotinamide [Example 221] | 0.16 nM | 0.09 nM | – | – |
| 2-((1,3-Trans)-3-chlorocyclobutanecarboxamido)-N-(4-phenylpyridin-3-yl)isonicotinamide [Example 220] | 0.37 nM | 0.22 nM | – | – |
| O=C(Nc1cncc2c1CCCC2)c1ccnc(NC(=O)C2CC2)c1 [Example 21, 2-(Cyclopropanecarboxamido)-N-(5,6,7,8-tetrahydroisoquinolin-4-yl)isonicotinamide] | 13 nM | 3.3 nM | – | – |
| O=C(Nc1cnccc1-c1ccc(C(F)(F)F)cc1C(F)(F)F)c1ccnc(NC(=O)C2CC2)c1 [Example 65, N-(4-(2,4-bis(trifluoromethyl)phenyl)pyridin-3-yl)-2-(cyclopropanecarboxamido)isonicotinamide] | 29 nM | 25 nM | – | – |
| N#Cc1cc(F)ccc1-c1ccncc1NC(=O)c1ccnc(NC(=O)C2CC2)c1 [Example 89, N-(4-(2-cyano-4-fluorophenyl)pyridin-3-yl)-2-(cyclopropanecarboxamido)isonicotinamide] | 470 nM | 190 nM | – | – |
| Cc1ccccc1-c1cncc(NC(=O)c2ccnc(NC(=O)C3CC3)c2)c1 [Example 122, 2-(cyclopropanecarboxamido)-N-(5-(o-tolyl)pyridin-3-yl)isonicotinamide] | 7.3 nM | 3.3 nM | – | – |
| O=C(Nc1cncc(-c2csc3ccccc23)c1)c1ccnc(NC(=O)C2CC2)c1 [Example 129] | 5.1 nM | 7 nM | – | – |
| CC(C)Oc1ccccc1-c1cncc(NC(=O)c2ccnc(NC(=O)C3CC3)c2)c1 [Example 136, 2-(cyclopropanecarboxamido)-N-(5-(2-isopropoxyphenyl)pyridin-3-yl)isonicotinamide] | 19 nM | 5.4 nM | – | – |
| O=C(Nc1cncc(-c2cccc(F)c2F)c1)c1ccnc(NC(=O)C2CC2)c1 [Example 137, 2-(cyclopropanecarboxamido)-N-(5-(2,3-difluorophenyl)pyridin-3-yl)isonicotinamide] | – | – | 0.74 nM | 3.4 nM |
| O=C(Nc1cncc(-c2cccc(Cl)c2Cl)c1)c1ccnc(NC(=O)C2CC2)c1 [Example 138, 2-(cyclopropanecarboxamido)-N-(5-(2,3-dichlorophenyl)pyridin-3-yl)isonicotinamide] | 10.5 nM | 1.8 nM | – | – |
| COc1cccc(-c2cncc(NC(=O)c3ccnc(NC(=O)C4CC4)c3)c2)c1F [Example 139, 2-(cyclopropanecarboxamido)-N-(5-(2-fluoro-3-methoxyphenyl)pyridin-3-yl)isonicotinamide] | – | 0.81 nM | – | 3.7 nM |
| O=C(Nc1cncc(-c2cccc(Cl)c2F)c1)c1ccnc(NC(=O)C2CC2)c1 [Example 140, N-(5-(3-chloro-2-fluorophenyl)pyridin-3-yl)-2-(cyclopropanecarboxamido)isonicotinamide] | 13 nM | 2.8 nM | – | – |
| O=C(Nc1cncc(-c2c(F)cccc2F)c1)c1ccnc(NC(=O)C2CC2)c1 [Example 141, 2-(cyclopropanecarboxamido)-N-(5-(2,6-difluorophenyl)pyridin-3-yl)isonicotinamide] | 21 nM | 4.3 nM | – | – |
| O=C(Nc1cncc(-c2cccc3cccnc23)c1)c1ccnc(NC(=O)C2CC2)c1 [Example 143, 2-(cyclopropanecarboxamido)-N-(5-(quinolin-8-yl)pyridin-3-yl)isonicotinamide] | 190 nM | 35 nM | – | – |
| CC(=O)c1ccccc1-c1cncc(NC(=O)c2ccnc(NC(=O)C3CC3)c2)c1 [Example 144, N-(5-(2-acetylphenyl)pyridin-3-yl)-2-(cyclopropanecarboxamido)isonicotinamide] | 55 nM | 15 nM | – | – |
| CCCOc1ccccc1-c1cncc(NC(=O)c2ccnc(NC(=O)C3CC3)c2)c1 [Example 146, 2-(cyclopropanecarboxamido)-N-(5-(2-propoxyphenyl)pyridin-3-yl)isonicotinamide] | 4.5 nM | 3.4 nM | – | – |
| O=C(Nc1cncc(-c2ccccc2OC(F)(F)F)c1)c1ccnc(NC(=O)C2CC2)c1 [Example 149, 2-(cyclopropanecarboxamido)-N-(5-(2-(trifluoromethoxy)phenyl)pyridin-3-yl)isonicotinamide] | 8.5 nM | 1.75 nM | – | – |
| O=C(Nc1cncc(C(F)(F)F)c1)c1ccnc(NC(=O)C2CC2)c1 [Example 150, 2-(cyclopropanecarboxamido)-N-(5-(trifluoromethyl)pyridin-3-yl)isonicotinamide] | 88 nM | 17 nM | – | – |
| Cn1cc(-c2cncc(NC(=O)c3ccnc(NC(=O)C4CC4)c3)c2)cn1 [Example 152, 2-(cyclopropanecarboxamido)-N-(5-(1-methyl-1H-pyrazol-4-yl)pyridin-3-yl)isonicotinamid] | 4.9 nM | 1.4 nM | – | – |
| O=C(Nc1cncc(-c2cc(Cl)ccc2F)c1)c1ccnc(NC(=O)C2CC2)c1 [Example 153, N-(5-(5-chloro-2-fluorophenyl)pyridin-3-yl)-2-(cyclopropanecarboxamido)isonicotinamide] | 5.3 nM | 1.6 nM | – | – |
| CN(C)c1ccccc1-c1cncc(NC(=O)c2ccnc(NC(=O)C3CC3)c2)c1 [Example 154, 2-(cyclopropanecarboxamido)-N-(5-(2-(dimethylamino)phenyl)pyridin-3-yl)isonicotinamide] | 40 nM | 18 nM | – | – |
| Cc1ncc(-c2cncc(NC(=O)c3ccnc(NC(=O)C4CC4)c3)c2)s1 [Example 159, 2-(cyclopropanecarboxamido)-N-(5-(2-methylthiazol-5-yl)pyridin-3-yl)isonicotinamide] | 4.7 nM | 1.9 nM | – | – |

The remaining compounds from weak to strong by IC50 (GSK3β; [1]), led by results:

| IC50 (GSK3β; [1]) | IC50 (GSK3α; [2]) | IC50 (GSK3α) | Compound | IC50 (GSK3β) |
| --- | --- | --- | --- | --- |
| 4.1 nM | 8 nM | – | O=C(Nc1cncc(C2CCCC2)c1)c1ccnc(NC(=O)C2CC2)c1 [Example 132, N-(5-cyclopentylpyridin-3-yl)-2-(cyclopropanecarboxamido)isonicotinamide] | – |
| 3.9 nM | – | – | O=C1CC(C(=O)Nc2cc(C(=O)Nc3cnccc3-c3ccccc3)ccn2)C1 [Example 218, 2-(3-Oxocyclobutanecarboxamido)-N-(4-phenylpyridin-3-yl)isonicotinamide] | – |
| 3.3 nM | 4.4 nM | – | O=C(Nc1cncc(-c2ccc(Cl)cc2)c1)c1ccnc(NC(=O)C2CC2)c1 [Example 133, N-(5-(4-chlorophenyl)pyridin-3-yl)-2-(cyclopropanecarboxamido)isonicotinamide] | – |
| 2.7 nM | – | – | CC(C)c1ccccc1-c1cncc(NC(=O)c2ccnc(NC(=O)C3CC3)c2)c1 [Example 134, 2-(cyclopropanecarboxamido)-N-(5-(2-isopropylphenyl)pyridin-3-yl)isonicotinamide] | – |
| 2.7 nM | – | – | Cc1cc(-c2cncc(NC(=O)c3ccnc(NC(=O)C4CC4)c3)c2)c(C)s1 [Example 135, 2-(cyclopropanecarboxamido)-N-(5-(2,5-dimethylthiophen-3-yl)pyridin-3-yl)isonicotinamide] | – |
| 2.5 nM | 1.1 nM | – | O=C(Nc1cncc(-c2cccc(F)c2)c1)c1ccnc(NC(=O)C2CC2)c1 [Example 126, 2-(cyclopropanecarboxamido)-N-(5-(3-fluorophenyl)pyridin-3-yl)isonicotinamide] | – |
| 2.5 nM | 0.41 nM | – | Cc1cscc1-c1cncc(NC(=O)c2ccnc(NC(=O)C3CC3)c2)c1 [Example 130, 2-(cyclopropanecarboxamido)-N-(5-(4-methylthiophen-3-yl)pyridin-3-yl)isonicotinamide] | – |
| 2.4 nM | 0.99 nM | – | O=C(Nc1cncc(-c2ccoc2)c1)c1ccnc(NC(=O)C2CC2)c1 [Example 121, 2-(cyclopropanecarboxamido)-N-(5-(furan-3-yl)pyridin-3-yl)isonicotinamide] | – |
| 2 nM | 0.86 nM | – | O=C(Nc1cncc(-c2cccnc2)c1)c1ccnc(NC(=O)C2CC2)c1 [Example 125, N-([3,3′-bipyridin]-5-yl)-2-(cyclopropanecarboxamido)isonicotinamide] | – |
| 1.6 nM | – | – | O=C1CCC(C(=O)Nc2cc(C(=O)Nc3cnccc3-c3ccccc3)ccn2)C1 (stereo not shown) [Example 229, 2-(3-Oxocyclopentanecarboxamido)-N-(4-phenylpyridin-3-yl)isonicotinamide] | – |
| 1.3 nM | 0.54 nM | – | O=C(Nc1cncc(-c2ccccc2Cl)c1)c1ccnc(NC(=O)C2CC2)c1 [Example 127, N-(5-(2-chlorophenyl)pyridin-3-yl)-2-(cyclopropanecarboxamido)isonicotinamide] | – |
| 1.2 nM | 1.9 nM | – | O=C(Nc1cncc(-c2ccsc2)c1)c1ccnc(NC(=O)C2CC2)c1 [Example 117, 2-(cyclopropanecarboxamido)-N-(5-(thiophen-3-yl)pyridin-3-yl)isonicotinamide] | – |
| 0.5 nM | 2.6 nM | – | O=C(Nc1cncc(-c2ccccn2)c1)c1ccnc(NC(=O)C2CC2)c1 [Example 128, N-([2,3′-bipyridin]-5′-yl)-2-(cyclopropanecarboxamido)isonicotinamide] | – |
| 0.41 nM | 0.76 nM | – | N#Cc1cscc1-c1cncc(NC(=O)c2ccnc(NC(=O)C3CC3)c2)c1 [Example 131, N-(5-(4-cyanothiophen-3-yl)pyridin-3-yl)-2-(cyclopropanecarboxamido)isonicotinamide] | – |
| 0.4 nM | 0.25 nM | – | O=C(Nc1cnccc1-c1ccccc1)c1ccnc(NC(=O)C2CC(Cl)C2)c1 (stereo not shown) [Example 215, 2-(3-Cholorocyclobutanecarboxamido)-N-(4-phenylpyridin-3-yl)isonicotinamide] | – |
